The source of these data is US20220378923A1, “BET DEGRADER” (KYOWA KIRIN CO., LTD., priority 2019, published 2022).

Each structure is given as a SMILES string. Read-outs that look alike come from different tables or passages of the source.

In one assay the test system is SU-DHL-4 cells. The assay can be described thus: Inhibitory effect on cell viability in SU-DHL-4 cell line (Test Example 1). Type of assay: cell-based, human. Particulars: 72 hours; for IC50: SU-DHL-4 (wild type) cells, calculated using the measurement results of test example 1, read-out: SU-DHL-4 WT IC50; for IC90: SU-DHL-4 cells, Cell Counting Kit-8, concentration showing 90% inhibition of cell viability, read-out: SU-DHL-4 Cell Viability Inhibition Rate IC90. In outline:
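SU-DHL-4 cells were grown at 37° C. under 5% CO2 in RPMI1640 with 10 vol % heat-inactivated FBS plus penicillin/streptomycin, seeded and precultured for 18 to 25 hours, then exposed to test compound at 0.1 vol % DMSO for 72 hours. Viability was read with Cell Counting Kit-8 by absorbance at 450 nm.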

Another assay deals with DCAF16 KO SU-DHL-4 cells. Kind of assay: Inhibitory effect on cell viability using SU-DHL-4 DCAF16 knock out (KO) cell line (Test Example 6). Type of assay: cell-based, human. Particulars: for Activity Attenuation Ratio: (SU-DHL-4 DCAF16 KO IC50)/(SU-DHL-4 WT IC50); for IC50: DCAF16 KO SU-DHL-4 cells, 72 hours, Cell Counting Kit-8, 50% inhibition of cell viability. The procedure: The human DLBCL cell line SU-DHL-4 was purchased from DSMZ. SU-DHL-4 was passaged using RPMI1640 medium containing 10 vol % FBS. After the Cas9 gene was introduced, the cells were cultured in the above medium containing 0.01 mg/mL blasticidin (InvivoGen, Cat No. ant-bl-1). After introduction of sgRNA, the cells were cultured in the above medium containing 0.0001 mg/mL puromycin dihydrochloride (SIGMA, Cat No. P9020-10 ML). The culture conditions were 37° C. and 5% CO2.
Edit-R Lentiviral hEF1α-Blast-Cas9 Nuclease Particles (Cat No. VCAS10126) was used as a lentivirus for expressing Cas9 in human cell lines. Three types of Edit-R Human DCAF16 Lentiviral sgRNA (Cat No. VSGH10142-246568260; DNA target sequence […] (SEQ ID NO: 1), Cat No. VSGH10142-246568262; DNA target sequence […] (SEQ ID NO: 2) and Cat No. VSGH10142-246568263; DNA target sequence […] (SEQ ID NO: 3)) were used as lentiviruses for introducing DCAF16 sgRNA. As a control, Edit-R Lentiviral sgRNA Non-targeting Control #1 (Cat No. VSGC10215) was used. All lentiviruses were purchased from Dharmacon and stored at −80° C. until use.
SU-DHL-4 was suspended at 4×10^5 cells/mL in RPMI 1640 without FBS, 0.25 mL of the suspension was added to a 24-well plate, and the cells were cultured overnight. The next day, 0.003 mL of virus particles of Edit-R Lentiviral hEF1α-Blast-Cas9 Nuclease Particles was added. After culturing in a CO2 incubator for 4 hours, RPMI 1640 containing 0.75 mL of 10 vol % FBS was added. After culturing in a CO2 incubator for about 48 hours, the medium was replaced with RPMI1640 containing 10 vol % FBS, and the cells were cultured in a CO2 incubator. Four days after infection, the medium was replaced with a medium containing 0.01 mg/mL blasticidin (InvivoGen, Cat No. ant-bl-1). Then, the cells were passaged once every 2 to 3 days and thus twice in total (that is, cultured for 1 week) to obtain SU-DHL-4/Cas9, which is a Cas9-introduced SU-DHL-4 cell line.
(6) sgRNA infection SU-DHL-4/Cas9 was suspended at 4×10^5 cells/mL in RPMI 1640 without FBS, 0.25 mL of the suspension was added to a 24-well plate, and the cells were cultured overnight. The next day, a total of 4 types of sgRNA virus particles, 1 type of Control and 3 types targeting DCAF16 were added to the respective wells by 0.03 mL. After culturing in a CO2 incubator for 5 hours, RPMI 1640 containing 0.75 mL of 10 vol % FBS was added.
After culturing in a CO2 incubator for about 48 hours, the medium was replaced with RPMI1640 containing 10 vol % FBS, and the cells were cultured in a CO2 incubator. Four days after infection, the medium was replaced with a medium supplemented with 0.01 mg/mL puromycin dihydrochloride (SIGMA, Cat No. P9020-10 ML). Then, the cells were passaged once or twice a week for 2 weeks, and a cell stock was prepared using CELLBANKER I plus (Takara Bio, Cat No. CB-021). Cell line stock was stored at −80° C. Using Edit-R Lentiviral sgRNA Non-targeting Control #1, the Negative Control sequence was introduced into the SU-DHL-4 cell line, which was referred to as SU-DHL-4 NC strain, and using Edit-R Human DCAF16 Lentiviral sgRNA, […] sequence (SEQ ID NO: 1) was introduced into the SU-DHL-4 cell line, which was referred to as SU-DHL-4 DCAF16 KO1 strain, […] sequence (SEQ ID NO: 2) was introduced into the SU-DHL-4 cell line, which was referred to as SU-DHL-4 DCAF16 KO2 strain, and […] sequence (SEQ ID NO: 3) was introduced into the SU-DHL-4 cell line, which was referred to as SU-DHL-4 DCAF16 KO 3 strain.
The cultured DCAF16 KO SU-DHL-4 cells were seeded at 2000 cells/well in a transparent 384-well plate (Code No. 781182, Greiner bio-one). After seeding, the cells were pre-cultured at 37° C. in a carbon dioxide gas incubator for 18 to 25 hours. […]
(In general: Formazan colour is commonly taken as a measure of viable cells.)

The term IC50 denotes the concentration that gives 50% inhibition. For orientation: IC90 means the concentration at which the effect reaches the 90% level. In the case of `CCC(=O)N1c2ccccc2[C@H](Nc2ccc(NC(=O)C#CCNC(=O)C3CCC(N[C@@H]4C[C@H](C)N(C(=O)CC)c5ccccc54)CC3)cc2)C[C@@H]1C` (relative stereo) [Compound 8g, (1R,4r)-4-(((2S*,4R*)-2-Methyl-1-propionyl-1,2,3,4-tetrahydroquinolin-4-yl)amino)-N-(4-((4-(((2S,4R)-2-methyl-1-propionyl-1,2,3,4-tetrahydroquinolin-4-yl)amino)phenyl)amino)-4-oxobut-2-yn-1-yl)cyclohexane-1-carboxamide], in the assay on SU-DHL-4 cells, the half-maximal inhibitory concentration (IC50) is 0.008 nM and the IC90 was 0.01 nM. For the same molecule, in the assay on DCAF16 KO SU-DHL-4 cells, the “Activity Attenuation Ratio” value was found to be 3174 and the IC50 was determined as 26 nM.
Consider `CCC(=O)N1c2ccccc2[C@H](Nc2ccc(NC(=O)N3CCN(C(=O)c4ccc(N[C@@H]5C[C@H](C)N(C(=O)CC)c6ccccc65)cc4)CC3)cc2)C[C@@H]1C` (relative stereo) [Compound 6m, 4-(4-(((2S,4R)-2-Methyl-1-propionyl-1,2,3,4-tetrahydroquinolin-4-yl)amino)benzoyl)-N-(4-(((2S*,4R*)-2-methyl-1-propionyl-1,2,3,4-tetrahydroquinolin-4-yl)amino)phenyl)piperazine-1-carboxamide], for which the IC50 in the assay with SU-DHL-4 cells (Homo sapiens) was 0.08 nM; with DCAF16 KO SU-DHL-4 cells (Homo sapiens), 90.3 nM. Further, the “Activity Attenuation Ratio” value in the assay on DCAF16 KO SU-DHL-4 cells is 1164.
On to `CCC(=O)N1c2ccccc2[C@H](Nc2ccc(-n3cc(CNC(=O)c4ccc(Cn5c(CC)cc6c5CCCC6=O)cc4)nn3)cc2)C[C@@H]1C` [Compound 15f, 4-((2-Ethyl-4-oxo-4,5,6,7-tetrahydro-1H-indol-1-yl)methyl)-N-((1-(4-(((2S,4R)-2-methyl-1-propionyl-1,2,3,4-tetrahydroquinolin-4-yl)amino)phenyl)-1H-1,2,3-triazol-4-yl)methyl)benzamide], for which the IC50 in the assay on SU-DHL-4 cells (Homo sapiens) is 0.03 nM; in the assay with DCAF16 KO SU-DHL-4 cells (Homo sapiens) it was 28.3 nM. Moreover, in the assay with DCAF16 KO SU-DHL-4 cells, the “Activity Attenuation Ratio” value is on record as 902.
Consider `CCC(=O)N1c2ccccc2[C@H](Nc2ccc(C(=O)NCCNS(=O)(=O)c3ccc(N[C@@H]4C[C@H](C)N(C(=O)CC)c5ccccc54)cc3)cc2)C[C@@H]1C` [Compound 4d, 4-{[(2S,4R)-2-Methyl-1-propionyl-1,2,3,4-tetrahydroquinolin-4-yl]amino}-N-{2-[(4-{[(2S,4R)-2-methyl-1-propionyl-1,2,3,4-tetrahydroquinolin-4-yl]amino}phenyl)sulfonamide]ethyl}benzamide], for which, in the assay with SU-DHL-4 cells, the IC50 was 4.18 nM and the IC90 was 13 nM. In the assay with DCAF16 KO SU-DHL-4 cells, the “Activity Attenuation Ratio” value was determined as 365 and the IC50 turned out to be 1530 nM.
As to `CCC(=O)N1c2ccccc2[C@H](Nc2ccc(-c3nnc(CNC(=O)[C@H]4CC[C@H](N[C@@H]5C[C@H](C)N(C(=O)CC)c6ccccc65)CC4)o3)cc2)C[C@@H]1C` [Compound 7q, (1R,4R)-4-(((2S,4R)-2-Methyl-1-propionyl-1,2,3,4-tetrahydroquinolin-4-yl)amino)-N-((5-(4-(((2S,4R)-2-methyl-1-propionyl-1,2,3,4-tetrahydroquinolin-4-yl)amino)phenyl)-1,3,4-oxadiazol-2-yl)methyl)cyclohexane-1-carboxamide], in the assay with SU-DHL-4 cells, the IC50 was 0.09 nM and the IC90 was 0.24 nM. In the assay on DCAF16 KO SU-DHL-4 cells, the “Activity Attenuation Ratio” value worked out at 850 and inhibition was half-maximal at 79.7 nM (IC50).
`CCC(=O)N1c2ccccc2[C@H](NCCCCCCCC(=O)Nc2ccc(N[C@@H]3C[C@H](C)N(C(=O)CC)c4ccccc43)cc2)C[C@@H]1C` (relative stereo) [Compound 12h, 8-(((2S*,4R*)-2-Methyl-1-propionyl-1,2,3,4-tetrahydroquinolin-4-yl)amino)-N-(4-(((2S,4R)-2-methyl-1-propionyl-1,2,3,4-tetrahydroquinolin-4-yl)amino)phenyl)octanamide]: the half-inhibitory concentration (IC50) with SU-DHL-4 cells (Homo sapiens) is 3.11 nM; in the assay with DCAF16 KO SU-DHL-4 cells (Homo sapiens), 595 nM. Further, the “Activity Attenuation Ratio” value in the assay with DCAF16 KO SU-DHL-4 cells was determined as 191.
In the case of `CCNC(=O)C[C@@H]1N=C(c2ccc(SCCCCSc3ccc(C4=N[C@@H](CC(=O)NCC)c5nnc(C)n5-c5ccc(OC)cc54)cc3)cc2)c2cc(OC)ccc2-n2c(C)nnc21` [compound 1, 2,2′-((4S,4'S)-6,6′-((butane-1,4-diylbis(sulfanediyl))bis(4,1-phenylene))bis(8-methoxy-1-methyl-4H-benzo[f][1,2,4]triazolo[4,3-a][1,4]diazepine-6,4-diyl))bis(N-ethylacetamide), reference compound], in the assay on SU-DHL-4 cells, the IC50 is 221 nM and the IC90 stood at 2560 nM. Further, in the assay on DCAF16 KO SU-DHL-4 cells, the “Activity Attenuation Ratio” value is 0.23 and the IC50 is 49.2 nM.
On to `CCC(=O)N1c2ccccc2[C@H](Nc2ccc(SCCNC(=O)c3ccc(C4=N[C@@H](CC(=O)OCCN(C)C)c5nnc(C)n5-c5sc(C)c(C)c54)cc3)cc2)C[C@@H]1C` [Compound 13a, 2-(Dimethylamino)ethyl 2-((S)-2,3,9-trimethyl-4-(4-((2-((4-(((2S,4R)-2-methyl-1-propionyl-1,2,3,4-tetrahydroquinolin-4-yl)amino)phenyl)thio)ethyl)carbamoyl)phenyl)-6H-thieno[3,2-f][1,2,4]triazolo[4,3-a][1,4]diazepin-6-yl)acetate], for which the values for the IC50 in the assay with SU-DHL-4 cells (Homo sapiens) and with DCAF16 KO SU-DHL-4 cells (Homo sapiens) were 0.26 nM and 9.31 nM, respectively. The “Activity Attenuation Ratio” value in the assay with DCAF16 KO SU-DHL-4 cells was found to be 35.
Consider `CCC(=O)N1c2ccccc2[C@H](Nc2ccc(C(=O)NCCCNC(=O)c3ccc(C4=N[C@@H](CC(=O)OC5CCC(O)CC5)c5nnc(C)n5-c5sc(C)c(C)c54)cc3)cc2)C[C@@H]1C` (stereo partly drawn) [Compound 13d, 4-Hydroxycyclohexyl 2-((S)-2,3,9-trimethyl-4-(4-((3-(4-(((2S,4R)-2-methyl-1-propionyl-1,2,3,4-tetrahydroquinolin-4-yl)amino)benzamide)propyl)carbamoyl)phenyl)-6H-thieno[3,2-f][1,2,4]triazolo[4,3-a][1,4]diazepin-6-yl)acetate], for which, in the assay with SU-DHL-4 cells, the half-inhibitory concentration (IC50) is 0.53 nM and the IC90 amounted to 1.19 nM. For the same molecule, in the assay with DCAF16 KO SU-DHL-4 cells, the “Activity Attenuation Ratio” value was found to be 52 and half-maximal inhibition (IC50) was put at 27.8 nM.
In the case of `CCC(=O)N1c2ccccc2[C@H](Nc2ccc(C(=O)NCC(=O)CNC(=O)c3ccc(N[C@@H]4C[C@H](C)N(C(=O)CC)c5ccccc54)cc3)cc2)C[C@@H]1C` [Compound 1l, N,N′-(2-Oxopropane-1,3-diyl)bis(4-{[(2S,4R)-2-methyl-1-propionyl-1,2,3,4-tetrahydroquinolin-4-yl]amino}benzamide)], the IC50 is 0.03 nM in the assay with SU-DHL-4 cells (Homo sapiens) and 101 nM in the assay on DCAF16 KO SU-DHL-4 cells (Homo sapiens). Moreover, the “Activity Attenuation Ratio” value in the assay with DCAF16 KO SU-DHL-4 cells is on record as 3357.
